In the kinase profiling compilation of Christmann-Franck et al. (2016):

Tests used:
Test in all cases: radiometric filter-binding kinase assay
MAPK12 (human) = MAPK12 (human) (UniProt P53778)
IKBKE (human) = IKBKE (human) (UniProt Q14164)
PKN2 (human) = PKN2 (human) (UniProt Q16513)
CAMKK2 (human) = CAMKK2 (human) (UniProt Q96RR4)
CLK2 (human) = CLK2 (human) (UniProt P49760)
CHEK1 (human) = CHEK1 (human) (UniProt O14757)
MARK2 (human) = MARK2 (human) (UniProt Q7KZI7)
PLK1 (human) = PLK1 (human) (UniProt P53350)
PAK4 (human) = PAK4 (human) (UniProt O96013)
MARK1 (human) = MARK1 (human) (UniProt Q9P0L2)
MST4 (human) = MST4 (human) (UniProt Q9P289)
Sequence of MST4 (human) (Q9P289 whole entry, looked up): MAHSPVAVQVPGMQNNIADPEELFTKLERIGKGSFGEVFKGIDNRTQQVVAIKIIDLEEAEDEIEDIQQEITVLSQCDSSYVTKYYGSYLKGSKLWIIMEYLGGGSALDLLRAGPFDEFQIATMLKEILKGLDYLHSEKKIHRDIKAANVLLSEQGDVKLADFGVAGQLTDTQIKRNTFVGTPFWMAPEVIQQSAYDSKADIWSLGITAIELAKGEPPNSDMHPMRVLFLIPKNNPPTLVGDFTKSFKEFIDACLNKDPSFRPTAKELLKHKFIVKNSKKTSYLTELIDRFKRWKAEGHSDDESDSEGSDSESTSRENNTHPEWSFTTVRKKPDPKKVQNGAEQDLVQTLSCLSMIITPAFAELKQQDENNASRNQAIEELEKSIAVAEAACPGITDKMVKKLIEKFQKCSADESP

PIM2 (human) = PIM2 (human) (UniProt Q9P1W9)
Sequence of PIM2 (human) (Q9P1W9 whole entry, looked up): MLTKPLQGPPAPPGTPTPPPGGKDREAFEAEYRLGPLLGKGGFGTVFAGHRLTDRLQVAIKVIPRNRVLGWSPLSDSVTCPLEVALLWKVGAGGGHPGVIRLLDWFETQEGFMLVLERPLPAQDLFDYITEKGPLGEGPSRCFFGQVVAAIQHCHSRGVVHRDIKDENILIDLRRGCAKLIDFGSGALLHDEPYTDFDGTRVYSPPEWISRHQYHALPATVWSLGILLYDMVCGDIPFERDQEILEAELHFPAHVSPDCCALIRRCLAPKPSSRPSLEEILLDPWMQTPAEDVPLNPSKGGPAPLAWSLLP

PIM3 (human) = PIM3 (human) (UniProt Q86V86)
RIPK2 (human) = RIPK2 (human) (UniProt O43353)
PAK6 (human) = PAK6 (human) (UniProt Q9NQU5)
Sequence of PAK6 (human) (Q9NQU5 whole entry, looked up): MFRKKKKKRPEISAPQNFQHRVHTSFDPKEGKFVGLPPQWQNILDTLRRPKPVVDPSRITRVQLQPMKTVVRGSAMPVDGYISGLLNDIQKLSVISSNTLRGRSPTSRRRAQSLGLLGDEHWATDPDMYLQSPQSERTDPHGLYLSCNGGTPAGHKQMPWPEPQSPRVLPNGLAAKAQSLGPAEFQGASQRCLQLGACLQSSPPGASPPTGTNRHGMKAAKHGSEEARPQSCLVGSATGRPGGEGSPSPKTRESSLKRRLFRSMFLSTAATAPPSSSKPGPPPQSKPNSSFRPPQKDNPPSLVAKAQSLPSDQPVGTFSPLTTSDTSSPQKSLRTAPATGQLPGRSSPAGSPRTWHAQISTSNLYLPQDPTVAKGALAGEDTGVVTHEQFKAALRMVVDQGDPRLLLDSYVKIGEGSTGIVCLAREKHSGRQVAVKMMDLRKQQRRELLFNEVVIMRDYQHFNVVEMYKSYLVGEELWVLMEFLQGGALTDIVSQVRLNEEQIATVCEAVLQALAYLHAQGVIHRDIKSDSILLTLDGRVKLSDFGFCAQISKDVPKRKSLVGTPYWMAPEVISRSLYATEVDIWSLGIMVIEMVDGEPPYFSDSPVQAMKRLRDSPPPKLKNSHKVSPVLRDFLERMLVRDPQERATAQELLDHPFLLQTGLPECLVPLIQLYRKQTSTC

MAPK15 (human) = MAPK15 (human) (UniProt Q8TD08)
SRPK1 (human) = SRPK1 (human) (UniProt Q96SB4)
[1] = system: AKT2 (human), P31751 [S474D]
MAP3K7 TAB1 (human) = MAP3K7 TAB1 (human) (UniProt Q15750+O43318)
MAPKAPK2 (human) = MAPKAPK2 (human) (UniProt P49137)
MAPK3 (human) = MAPK3 (human) (UniProt P27361)
IRAK4 (human) = IRAK4 (human) (UniProt Q9NWZ3)
RPS6KA3 KD1 KD2 (human) = RPS6KA3 KD1 KD2 (human) (UniProt P51812)
[2] = system: PAK2 (human), Q13177 [T402E]
CSNK1D (human) = CSNK1D (human) (UniProt P48730)
MAPK14 (human) = MAPK14 (human) (UniProt Q16539)
HIPK3 (human) = HIPK3 (human) (UniProt Q9H422)
Sequence of HIPK3 (human) (Q9H422 whole entry, looked up): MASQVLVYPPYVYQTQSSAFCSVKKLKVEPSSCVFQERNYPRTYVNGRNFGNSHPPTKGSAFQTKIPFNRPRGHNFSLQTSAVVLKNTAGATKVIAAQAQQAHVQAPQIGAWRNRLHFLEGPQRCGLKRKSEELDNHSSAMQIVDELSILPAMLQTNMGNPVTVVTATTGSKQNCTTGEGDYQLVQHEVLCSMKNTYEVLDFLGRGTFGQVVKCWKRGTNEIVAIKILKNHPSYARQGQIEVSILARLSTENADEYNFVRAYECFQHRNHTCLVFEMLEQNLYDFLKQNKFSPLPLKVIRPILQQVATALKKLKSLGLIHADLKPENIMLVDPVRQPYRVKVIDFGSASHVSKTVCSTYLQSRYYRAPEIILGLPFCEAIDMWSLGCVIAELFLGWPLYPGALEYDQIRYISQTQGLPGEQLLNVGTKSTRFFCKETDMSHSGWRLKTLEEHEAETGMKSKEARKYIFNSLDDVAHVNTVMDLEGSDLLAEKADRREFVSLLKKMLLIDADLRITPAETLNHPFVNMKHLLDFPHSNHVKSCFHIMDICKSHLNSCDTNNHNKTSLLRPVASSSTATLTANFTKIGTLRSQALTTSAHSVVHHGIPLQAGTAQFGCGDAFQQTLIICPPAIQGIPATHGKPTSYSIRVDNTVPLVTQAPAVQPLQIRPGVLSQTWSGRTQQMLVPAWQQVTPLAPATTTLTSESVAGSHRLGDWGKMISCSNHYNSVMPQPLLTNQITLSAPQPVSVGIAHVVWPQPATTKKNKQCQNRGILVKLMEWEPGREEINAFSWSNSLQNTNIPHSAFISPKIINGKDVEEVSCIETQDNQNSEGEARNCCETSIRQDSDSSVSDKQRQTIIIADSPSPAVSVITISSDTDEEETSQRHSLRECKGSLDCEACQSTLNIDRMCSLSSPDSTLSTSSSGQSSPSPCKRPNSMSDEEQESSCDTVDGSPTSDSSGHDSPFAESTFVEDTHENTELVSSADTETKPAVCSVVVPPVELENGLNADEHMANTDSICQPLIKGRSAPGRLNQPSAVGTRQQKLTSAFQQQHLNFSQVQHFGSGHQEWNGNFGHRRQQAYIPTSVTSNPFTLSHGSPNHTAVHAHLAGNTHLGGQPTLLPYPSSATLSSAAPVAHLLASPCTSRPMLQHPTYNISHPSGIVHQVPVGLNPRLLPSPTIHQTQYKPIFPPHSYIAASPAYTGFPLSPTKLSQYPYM

EPHA4 (human) = EPHA4 (human) (UniProt P54764)
NEK6 (human) = NEK6 (human) (UniProt Q9HC98)
IGF1R (human) = IGF1R (human) (UniProt P08069)
Sequence of IGF1R (human) (P08069 whole entry, looked up): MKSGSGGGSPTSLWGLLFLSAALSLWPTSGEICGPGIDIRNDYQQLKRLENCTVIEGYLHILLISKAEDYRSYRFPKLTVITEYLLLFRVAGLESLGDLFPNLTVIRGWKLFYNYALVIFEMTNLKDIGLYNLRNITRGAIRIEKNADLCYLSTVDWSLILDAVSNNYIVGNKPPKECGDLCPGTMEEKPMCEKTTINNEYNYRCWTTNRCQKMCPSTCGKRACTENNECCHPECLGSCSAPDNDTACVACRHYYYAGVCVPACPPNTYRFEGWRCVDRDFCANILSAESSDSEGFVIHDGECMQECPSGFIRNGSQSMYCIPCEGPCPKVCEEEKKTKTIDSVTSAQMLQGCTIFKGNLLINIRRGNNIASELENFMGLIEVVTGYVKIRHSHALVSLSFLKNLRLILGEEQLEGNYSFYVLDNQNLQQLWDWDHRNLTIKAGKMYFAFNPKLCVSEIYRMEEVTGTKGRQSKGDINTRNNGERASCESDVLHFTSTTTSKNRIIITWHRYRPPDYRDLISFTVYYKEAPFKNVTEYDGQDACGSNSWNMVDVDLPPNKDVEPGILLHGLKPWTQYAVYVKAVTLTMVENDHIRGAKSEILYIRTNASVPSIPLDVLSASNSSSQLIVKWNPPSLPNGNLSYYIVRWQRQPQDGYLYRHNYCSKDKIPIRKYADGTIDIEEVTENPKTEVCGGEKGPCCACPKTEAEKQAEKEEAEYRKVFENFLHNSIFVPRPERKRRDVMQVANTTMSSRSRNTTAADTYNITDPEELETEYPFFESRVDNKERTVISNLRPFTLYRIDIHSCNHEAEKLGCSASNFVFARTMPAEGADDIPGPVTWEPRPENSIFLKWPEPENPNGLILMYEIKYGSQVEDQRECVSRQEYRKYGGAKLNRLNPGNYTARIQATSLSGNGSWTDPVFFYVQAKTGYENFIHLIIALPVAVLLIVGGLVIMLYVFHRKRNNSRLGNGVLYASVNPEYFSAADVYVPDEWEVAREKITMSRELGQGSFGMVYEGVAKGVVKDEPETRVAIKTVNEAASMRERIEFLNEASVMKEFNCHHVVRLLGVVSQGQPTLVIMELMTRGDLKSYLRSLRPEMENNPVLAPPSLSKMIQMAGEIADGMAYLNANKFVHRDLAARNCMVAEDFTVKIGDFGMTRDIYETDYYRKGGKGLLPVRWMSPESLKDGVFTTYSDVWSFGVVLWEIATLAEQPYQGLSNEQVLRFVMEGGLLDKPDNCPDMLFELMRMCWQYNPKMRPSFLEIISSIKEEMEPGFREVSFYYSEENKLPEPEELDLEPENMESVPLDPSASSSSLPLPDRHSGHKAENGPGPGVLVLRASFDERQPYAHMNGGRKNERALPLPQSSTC

DYRK1A (human) = DYRK1A (human) (UniProt Q13627)
RPS6KA5 KD1 KD2 (human) = RPS6KA5 KD1 KD2 (human) (UniProt O75582)
[3] = system: SGK1 (human), O00141 [S422D]
PAK7 (human) = PAK7 (human) (UniProt Q9P286)
Sequence of PAK7 (human) (Q9P286 whole entry, looked up): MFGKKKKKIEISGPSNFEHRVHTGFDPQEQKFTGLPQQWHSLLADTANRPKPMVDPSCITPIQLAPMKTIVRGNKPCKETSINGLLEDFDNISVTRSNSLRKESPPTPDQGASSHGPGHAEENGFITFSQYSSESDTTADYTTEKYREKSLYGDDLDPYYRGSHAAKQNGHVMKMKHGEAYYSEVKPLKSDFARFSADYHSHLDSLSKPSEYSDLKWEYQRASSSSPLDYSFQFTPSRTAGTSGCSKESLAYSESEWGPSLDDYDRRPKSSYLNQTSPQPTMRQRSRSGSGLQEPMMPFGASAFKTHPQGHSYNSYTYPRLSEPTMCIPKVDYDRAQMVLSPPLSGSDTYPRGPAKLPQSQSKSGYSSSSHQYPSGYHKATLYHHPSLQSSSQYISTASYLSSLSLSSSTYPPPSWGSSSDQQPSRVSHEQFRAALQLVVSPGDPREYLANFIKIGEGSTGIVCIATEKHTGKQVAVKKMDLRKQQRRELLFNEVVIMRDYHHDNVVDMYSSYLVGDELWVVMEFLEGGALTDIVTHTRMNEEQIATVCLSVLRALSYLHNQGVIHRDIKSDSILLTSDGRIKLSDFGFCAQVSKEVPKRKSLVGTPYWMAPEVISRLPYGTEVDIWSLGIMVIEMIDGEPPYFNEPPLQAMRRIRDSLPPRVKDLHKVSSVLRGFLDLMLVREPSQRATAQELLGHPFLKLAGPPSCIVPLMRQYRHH

NEK2 (human) = NEK2 (human) (UniProt P51955)

Sequence of MAPK12 (human) (P53778 whole entry, looked up): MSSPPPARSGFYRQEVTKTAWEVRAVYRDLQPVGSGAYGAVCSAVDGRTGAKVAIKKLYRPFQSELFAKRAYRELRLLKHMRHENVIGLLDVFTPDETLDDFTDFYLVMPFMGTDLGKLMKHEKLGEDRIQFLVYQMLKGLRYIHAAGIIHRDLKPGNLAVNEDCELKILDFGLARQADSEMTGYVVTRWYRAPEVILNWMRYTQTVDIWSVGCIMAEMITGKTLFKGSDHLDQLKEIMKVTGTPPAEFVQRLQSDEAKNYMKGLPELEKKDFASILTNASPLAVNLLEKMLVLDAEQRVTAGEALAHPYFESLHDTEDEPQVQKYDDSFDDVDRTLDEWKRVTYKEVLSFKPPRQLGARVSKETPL

For `O=C(Nc1ccccc1-c1cn2c(CN3CCNCC3)csc2n1)c1cnc2ccccc2n1`, which residual activity (MAPK12 (human); compound 0.1 µM) is on record?
Its residual activity is 84%.

What about the residual activity (MAPK12 (human); compound 1.0 µM) of the same compound?
The residual activity was 95%.

And the residual activity (MAPK12 (human); compound 10.0 µM)?
Its residual activity is 92%.

What about the residual activity (IKBKE (human); compound 0.1 µM) of the same compound?
The residual activity was 90%.

What about the residual activity (IKBKE (human); compound 1.0 µM) of the same compound?
Its residual activity is 102%.

What about the residual activity (IKBKE (human); compound 10.0 µM) of the same compound?
The residual activity was 83%.

What about the residual activity (PKN2 (human); compound 0.1 µM) of the same compound?
Its residual activity is 90%.

And the residual activity (PKN2 (human); compound 1.0 µM)?
The residual activity was 103%.

And the residual activity (PKN2 (human); compound 10.0 µM)?
Its residual activity is 104%.

What about the residual activity (CAMKK2 (human); compound 0.1 µM) of the same compound?
The residual activity was 92%.

And the residual activity (CAMKK2 (human); compound 1.0 µM)?
Its residual activity is 83%.

And the residual activity (CAMKK2 (human); compound 10.0 µM)?
Its residual activity is 44%.

And the residual activity (CLK2 (human); compound 1.0 µM)?
Its residual activity is 60%.

What about the residual activity (CLK2 (human); compound 10.0 µM) of the same compound?
The residual activity was 18%.

What about the residual activity (CHEK1 (human); compound 0.1 µM) of the same compound?
Its residual activity is 86%.

And the residual activity (CHEK1 (human); compound 1.0 µM)?
Its residual activity is 98%.

What about the residual activity (CHEK1 (human); compound 10.0 µM) of the same compound?
The residual activity was 96%.

And the residual activity (MARK2 (human); compound 1.0 µM)?
Its residual activity is 106%.

What about the residual activity (MARK2 (human); compound 10.0 µM) of the same compound?
The residual activity was 83%.

And the residual activity (PLK1 (human); compound 0.1 µM)?
The residual activity was 84%.

And the residual activity (PLK1 (human); compound 1.0 µM)?
Its residual activity is 94%.

And the residual activity (PLK1 (human); compound 10.0 µM)?
Its residual activity is 104%.

And the residual activity (PAK4 (human); compound 0.1 µM)?
The residual activity was 83%.

And the residual activity (PAK4 (human); compound 1.0 µM)?
The residual activity was 110%.

And the residual activity (PAK4 (human); compound 10.0 µM)?
Its residual activity is 96%.

And the residual activity (MARK1 (human); compound 1.0 µM)?
The residual activity was 85%.

What about the residual activity (MARK1 (human); compound 10.0 µM) of the same compound?
The residual activity was 74%.

What about the residual activity (MST4 (human); compound 0.1 µM) of the same compound?
Its residual activity is 73%.

And the residual activity (MST4 (human); compound 1.0 µM)?
The residual activity was 100%.

And the residual activity (MST4 (human); compound 10.0 µM)?
Its residual activity is 77%.

And the residual activity (PIM2 (human); compound 0.1 µM)?
The residual activity was 90%.

And the residual activity (PIM2 (human); compound 1.0 µM)?
The residual activity was 95%.

And the residual activity (PIM2 (human); compound 10.0 µM)?
Its residual activity is 78%.

What about the residual activity (PIM3 (human); compound 0.1 µM) of the same compound?
Its residual activity is 95%.

What about the residual activity (PIM3 (human); compound 1.0 µM) of the same compound?
The residual activity was 55%.

And the residual activity (PIM3 (human); compound 10.0 µM)?
The residual activity was 24%.

And the residual activity (RIPK2 (human); compound 1.0 µM)?
Its residual activity is 100%.

What about the residual activity (RIPK2 (human); compound 10.0 µM) of the same compound?
The residual activity was 95%.

What about the residual activity (PAK6 (human); compound 0.1 µM) of the same compound?
The residual activity was 101%.

And the residual activity (PAK6 (human); compound 1.0 µM)?
Its residual activity is 92%.

And the residual activity (PAK6 (human); compound 10.0 µM)?
Its residual activity is 87%.

And the residual activity (MAPK15 (human); compound 0.1 µM)?
Its residual activity is 81%.

And the residual activity (MAPK15 (human); compound 1.0 µM)?
The residual activity was 96%.

And the residual activity (MAPK15 (human); compound 10.0 µM)?
Its residual activity is 86%.

And the residual activity (SRPK1 (human); compound 0.1 µM)?
Its residual activity is 94%.

What about the residual activity (SRPK1 (human); compound 1.0 µM) of the same compound?
The residual activity was 92%.

And the residual activity (SRPK1 (human); compound 10.0 µM)?
The residual activity was 86%.

And the residual activity ([1]; compound 0.1 µM)?
The residual activity was 75%.

And the residual activity ([1]; compound 1.0 µM)?
Its residual activity is 70%.

What about the residual activity ([1]; compound 10.0 µM) of the same compound?
Its residual activity is 61%.

And the residual activity (MAP3K7 TAB1 (human); compound 1.0 µM)?
Its residual activity is 91%.

What about the residual activity (MAP3K7 TAB1 (human); compound 10.0 µM) of the same compound?
Its residual activity is 86%.

What about the residual activity (MAPKAPK2 (human); compound 0.1 µM) of the same compound?
The residual activity was 90%.

What about the residual activity (MAPKAPK2 (human); compound 1.0 µM) of the same compound?
The residual activity was 92%.

And the residual activity (MAPKAPK2 (human); compound 10.0 µM)?
The residual activity was 59%.

And the residual activity (MAPK3 (human); compound 0.1 µM)?
Its residual activity is 88%.

And the residual activity (MAPK3 (human); compound 1.0 µM)?
The residual activity was 105%.

What about the residual activity (MAPK3 (human); compound 10.0 µM) of the same compound?
The residual activity was 117%.

What about the residual activity (IRAK4 (human); compound 1.0 µM) of the same compound?
Its residual activity is 63%.

What about the residual activity (IRAK4 (human); compound 10.0 µM) of the same compound?
The residual activity was 24%.

And the residual activity (RPS6KA3 KD1 KD2 (human); compound 1.0 µM)?
Its residual activity is 84%.

And the residual activity (RPS6KA3 KD1 KD2 (human); compound 10.0 µM)?
Its residual activity is 46%.

What about the residual activity ([2]; compound 1.0 µM) of the same compound?
The residual activity was 107%.

And the residual activity ([2]; compound 10.0 µM)?
Its residual activity is 108%.

What about the residual activity (CSNK1D (human); compound 0.1 µM) of the same compound?
The residual activity was 99%.

What about the residual activity (CSNK1D (human); compound 1.0 µM) of the same compound?
Its residual activity is 106%.

And the residual activity (CSNK1D (human); compound 10.0 µM)?
Its residual activity is 91%.

What about the residual activity (MAPK14 (human); compound 0.1 µM) of the same compound?
The residual activity was 87%.

What about the residual activity (MAPK14 (human); compound 1.0 µM) of the same compound?
Its residual activity is 91%.

What about the residual activity (MAPK14 (human); compound 10.0 µM) of the same compound?
The residual activity was 99%.

What about the residual activity (HIPK3 (human); compound 0.1 µM) of the same compound?
Its residual activity is 88%.

And the residual activity (HIPK3 (human); compound 1.0 µM)?
Its residual activity is 92%.

What about the residual activity (HIPK3 (human); compound 10.0 µM) of the same compound?
Its residual activity is 73%.

What about the residual activity (EPHA4 (human); compound 1.0 µM) of the same compound?
Its residual activity is 78%.

And the residual activity (EPHA4 (human); compound 10.0 µM)?
Its residual activity is 76%.

What about the residual activity (NEK6 (human); compound 0.1 µM) of the same compound?
The residual activity was 84%.

And the residual activity (NEK6 (human); compound 1.0 µM)?
Its residual activity is 108%.

What about the residual activity (NEK6 (human); compound 10.0 µM) of the same compound?
Its residual activity is 83%.

And the residual activity (IGF1R (human); compound 0.1 µM)?
Its residual activity is 92%.

And the residual activity (IGF1R (human); compound 1.0 µM)?
Its residual activity is 96%.

And the residual activity (IGF1R (human); compound 10.0 µM)?
Its residual activity is 25%.

What about the residual activity (DYRK1A (human); compound 0.1 µM) of the same compound?
The residual activity was 101%.

What about the residual activity (DYRK1A (human); compound 1.0 µM) of the same compound?
The residual activity was 94%.

What about the residual activity (DYRK1A (human); compound 10.0 µM) of the same compound?
The residual activity was 58%.

And the residual activity (RPS6KA5 KD1 KD2 (human); compound 0.1 µM)?
The residual activity was 94%.

What about the residual activity (RPS6KA5 KD1 KD2 (human); compound 1.0 µM) of the same compound?
The residual activity was 90%.

And the residual activity (RPS6KA5 KD1 KD2 (human); compound 10.0 µM)?
Its residual activity is 68%.

What about the residual activity ([3]; compound 0.1 µM) of the same compound?
Its residual activity is 89%.

And the residual activity ([3]; compound 1.0 µM)?
Its residual activity is 94%.

What about the residual activity ([3]; compound 10.0 µM) of the same compound?
The residual activity was 84%.

What about the residual activity (PAK7 (human); compound 0.1 µM) of the same compound?
Its residual activity is 79%.

And the residual activity (PAK7 (human); compound 1.0 µM)?
Its residual activity is 91%.

And the residual activity (PAK7 (human); compound 10.0 µM)?
The residual activity was 72%.

What about the residual activity (NEK2 (human); compound 0.1 µM) of the same compound?
The residual activity was 91%.

And the residual activity (NEK2 (human); compound 1.0 µM)?
The residual activity was 95%.

What about the residual activity (NEK2 (human); compound 10.0 µM) of the same compound?
Its residual activity is 87%.
